The results in this text go back to ChEMBL document CHEMBL1201862, “PubChem BioAssay data set” (2004).

Each structure is given as a SMILES string.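 In this assay, cells in 96-well plates receive the compound at five concentrations for 48 hours. Endpoints are linearly interpolated between the surrounding concentrations. GI50 marks 50% less growth.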 Calls of active or inactive are those of the source. Rule as the data show it: active = GI50 up to about 1.1 µM and inactive = higher. Where only a bound is given, the exact number is not on record here.

Some test systems named below: A498; A549; Hs-578T; MDA-MB-435; MOLT-4; Malme-3M; NCI-H23; OVCAR-5; RPMI-8226; SF-295; SK-MEL-28; SW-620; UACC-62; UO-31; DU-145; OVCAR-3; SF-539; SK-OV-3; CCRF-CEM.
Holding throughout (assay): DTP human tumour cell line panel, 48 h

As usually defined, the GI50 is the concentration that inhibits growth by half. For `O=c1[nH]c2nc(S)nc(S)c2[nH]1`, the GI50 with A498, with A549, in the experiment on Hs-578T, with MDA-MB-435, in the experiment on MOLT-4 and in the experiment on Malme-3M was > 100 µM (inactive) each time. The GI50 in the experiment with NCI-H23, in the experiment with OVCAR-5, in the experiment with RPMI-8226, with SF-295, with SK-MEL-28 and with SW-620 was > 100 µM (inactive) throughout. Moreover, the GI50 in the experiment with UACC-62 and in the experiment with UO-31 was > 100 µM (inactive) throughout.

As to `Oc1ccccc1/C=N/N1C(=S)N(C23CC4CC(CC(C4)C2)C3)C(=N\c2ccccc2)/C1=N/c1ccccc1`, the GI50 was > 100 µM (inactive) in the experiment with A549; > 100 µM (inactive) in the experiment on DU-145; > 100 µM (inactive) with Hs-578T; > 100 µM (inactive) in the experiment with MDA-MB-435; 3.92 µM (inactive) in the experiment with MOLT-4; > 100 µM (inactive) in the experiment with Malme-3M. The GI50 in the experiment with NCI-H23 is > 100 µM (inactive); in the experiment with OVCAR-3 it was > 100 µM (inactive); with OVCAR-5 it was > 100 µM (inactive); with RPMI-8226 it was 6.15 µM (inactive); with SF-295 it was > 100 µM (inactive); in the experiment with SF-539 it was > 100 µM (inactive). Besides, the GI50 in the experiment with SK-MEL-28, with SK-OV-3, in the experiment with SW-620, with UACC-62 and in the experiment with UO-31 was > 100 µM (inactive) throughout.

Take `N#CC1C(=O)NC(=O)C(C#N)C1c1ccc(Cl)c(Cl)c1` (configuration not stated): the GI50 is 49.3 µM (inactive) in the experiment with A549; 13.6 µM (inactive) in the experiment with CCRF-CEM; 37.5 µM (inactive) in the experiment on DU-145; 23.1 µM (inactive) with Hs-578T; 22.7 µM (inactive) with MDA-MB-435; 26.9 µM (inactive) with MOLT-4. In addition, the GI50 was > 100 µM (inactive) with Malme-3M; 21.4 µM (inactive) with NCI-H23; 24.2 µM (inactive) with OVCAR-3; 23.4 µM (inactive) in the experiment with OVCAR-5; 40.3 µM (inactive) in the experiment on SF-295; 19.4 µM (inactive) in the experiment on SF-539. Besides, the GI50 with SK-MEL-28 was 30.6 µM (inactive); in the experiment on SK-OV-3, > 100 µM (inactive); with SW-620 it was 16.7 µM (inactive); with UO-31 it was 16.5 µM (inactive).

As for `Oc1ccc(-c2c3c(nc4c2CCc2ccc(Br)cc2-4)-c2cc(Br)ccc2CC3)cc1`, the GI50 is 23.4 µM (inactive) with A498; 19.8 µM (inactive) with A549; 25.1 µM (inactive) with DU-145; 20 µM (inactive) in the experiment on MDA-MB-435; 25.8 µM (inactive) in the experiment with Malme-3M; 20.3 µM (inactive) in the experiment on NCI-H23. Moreover, the GI50 in the experiment with OVCAR-3 is 15.1 µM (inactive); in the experiment with OVCAR-5, 18 µM (inactive); in the experiment with RPMI-8226, 26.9 µM (inactive); in the experiment on SF-295 it was 16.2 µM (inactive); in the experiment on SK-MEL-28, 20.6 µM (inactive); in the experiment on SK-OV-3, 16.5 µM (inactive). The GI50 in the experiment on UACC-62 was 21.3 µM (inactive); in the experiment on UO-31, 18.7 µM (inactive).

On to `C=C1c2nc3ccccc3n2C=C(c2ccc(OC)cc2)N1c1ccc(OC)cc1`, for which the GI50 in the experiment on A498 is 17.9 µM (inactive); in the experiment on A549 it was 21.3 µM (inactive); with CCRF-CEM it was > 100 µM (inactive); in the experiment with DU-145 it was 26.9 µM (inactive); in the experiment with MDA-MB-435, 12.1 µM (inactive); in the experiment on MOLT-4 it was > 100 µM (inactive). In addition, the GI50 in the experiment on Malme-3M was 11 µM (inactive); with NCI-H23, 21.1 µM (inactive); in the experiment with OVCAR-3, 8.18 µM (inactive); in the experiment with OVCAR-5 it was 65.5 µM (inactive); with RPMI-8226 it was 29.4 µM (inactive); in the experiment with SF-295, 11.7 µM (inactive). Moreover, the GI50 was 7.16 µM (inactive) in the experiment on SF-539; 16.1 µM (inactive) with SK-OV-3; 37.8 µM (inactive) in the experiment on SW-620; 16.1 µM (inactive) in the experiment with UACC-62; 12.5 µM (inactive) with UO-31.

Take `CC1(C)CC(O)CC(C)(C)N1O` [TEMPOL HYDROXYLAMINE]: the GI50 in the experiment on A498, in the experiment on A549, in the experiment with CCRF-CEM, in the experiment with DU-145, in the experiment on MDA-MB-435 and in the experiment with MOLT-4 was > 100 µM (inactive) each time. Further, the GI50 was > 100 µM (inactive) in the experiment with Malme-3M; 68.1 µM (inactive) with OVCAR-3; > 100 µM (inactive) with OVCAR-5; > 100 µM (inactive) in the experiment on RPMI-8226; > 100 µM (inactive) with SF-295; > 100 µM (inactive) in the experiment with SF-539. The GI50 in the experiment on SK-MEL-28, with SK-OV-3, with SW-620, in the experiment with UACC-62 and with UO-31 was > 100 µM (inactive) each time.

Regarding `C=CC(C)(C)c1cc([C@@H]2COc3cc(O)ccc3C2=O)c(O)c(O)c1OC`, the GI50 with A549 is 33.7 µM (inactive); with CCRF-CEM, 41.7 µM (inactive); in the experiment on DU-145, 20.7 µM (inactive); in the experiment on Hs-578T, 39 µM (inactive); in the experiment on MDA-MB-435, 19.3 µM (inactive); in the experiment with MOLT-4, 25.7 µM (inactive). Also, the GI50 in the experiment on Malme-3M was 30.5 µM (inactive); in the experiment on NCI-H23, 17.1 µM (inactive); in the experiment on OVCAR-3, 15.8 µM (inactive); in the experiment with OVCAR-5, 31.4 µM (inactive); with SF-295 it was 39.4 µM (inactive); in the experiment on SF-539, 24.9 µM (inactive). The GI50 was 27.8 µM (inactive) in the experiment with SK-MEL-28; 29.1 µM (inactive) in the experiment with SK-OV-3; 26.7 µM (inactive) with SW-620; 18.1 µM (inactive) with UACC-62; 15.9 µM (inactive) with UO-31.

As to `O=C1CCC2(c3ccc(Cl)cc3)Nc3ncncc3N12` (configuration not stated), the GI50 in the experiment on A549, in the experiment with CCRF-CEM, with DU-145, in the experiment on Hs-578T, with MDA-MB-435 and with MOLT-4 was > 10 µM (inactive) each time. In addition, the GI50 with Malme-3M, in the experiment on NCI-H23, in the experiment with OVCAR-3, with OVCAR-5, with SF-295 and in the experiment with SF-539 was > 10 µM (inactive) throughout. Further, the GI50 with SK-OV-3, with SW-620, in the experiment on UACC-62 and in the experiment on UO-31 was > 10 µM (inactive) each time.

With `O=C(OCC(Cl)(Cl)Cl)O[C@@H]1CCCC1(c1ccccc1)c1ccccc1`, the GI50 in the experiment on A549 was 65.3 µM (inactive); in the experiment with CCRF-CEM it was > 100 µM (inactive); in the experiment with DU-145, > 100 µM (inactive); in the experiment on MDA-MB-435, 24.2 µM (inactive); in the experiment with MOLT-4, 6.81 µM (inactive); in the experiment with NCI-H23, 68.1 µM (inactive). Moreover, the GI50 in the experiment with OVCAR-5 is > 100 µM (inactive); in the experiment on SF-295, > 100 µM (inactive); in the experiment on SK-MEL-28, 78.7 µM (inactive); in the experiment with SK-OV-3, > 100 µM (inactive); in the experiment with SW-620 it was > 100 µM (inactive); in the experiment with UACC-62 it was > 100 µM (inactive). The GI50 with UO-31 was > 100 µM (inactive).

As to `CC1(C)C(C#N)C1C1=C(N2CCOCC2)[C@]2(C)C(OC(=O)c3ccccc3)CC[C@@H]2C1` (some centres not stated), the GI50 with A498 is > 100 µM (inactive); in the experiment on A549 it was > 100 µM (inactive); in the experiment with CCRF-CEM it was 31 µM (inactive); in the experiment on Hs-578T it was > 100 µM (inactive); in the experiment with MDA-MB-435 it was > 100 µM (inactive); in the experiment on MOLT-4, 34.9 µM (inactive). Also, the GI50 in the experiment on Malme-3M, with NCI-H23, in the experiment with OVCAR-3, with OVCAR-5, with SF-295 and in the experiment on SF-539 was > 100 µM (inactive) throughout. Moreover, the GI50 in the experiment with SK-MEL-28, in the experiment on SK-OV-3, in the experiment with SW-620, in the experiment with UACC-62 and in the experiment on UO-31 was > 100 µM (inactive) in each case.

Take `C=C1C(=O)O[C@H]2[C@H]3O[C@@H](C[C@@H]12)[C@](C)(O)CCCC(C)=CCC[C@H]3C`: the GI50 was 16.8 µM (inactive) in the experiment with A549; 0.807 µM (active) with CCRF-CEM; 13.1 µM (inactive) with DU-145; 3.9 µM (inactive) in the experiment on Hs-578T; 3.86 µM (inactive) in the experiment with MDA-MB-435; 2.08 µM (inactive) in the experiment on MOLT-4. Moreover, the GI50 in the experiment on NCI-H23 is 14.5 µM (inactive); in the experiment with OVCAR-3 it was 13.9 µM (inactive); in the experiment with OVCAR-5, 14.6 µM (inactive); in the experiment on RPMI-8226, 3.17 µM (inactive); in the experiment with SF-295 it was 16.5 µM (inactive); with SF-539, 10.2 µM (inactive). In addition, the GI50 in the experiment with SK-MEL-28 is 11.5 µM (inactive); in the experiment on SK-OV-3, 19 µM (inactive); in the experiment on SW-620 it was 5.13 µM (inactive); in the experiment with UACC-62, 10.2 µM (inactive); in the experiment on UO-31, 11.4 µM (inactive).

With `NNC(=S)NCCNC(=S)NN`, the GI50 with A549, in the experiment on CCRF-CEM, in the experiment with DU-145, in the experiment on Hs-578T, in the experiment with MDA-MB-435 and in the experiment with MOLT-4 was > 100 µM (inactive) in each case. The GI50 in the experiment with Malme-3M, with NCI-H23, in the experiment with OVCAR-3, with OVCAR-5, in the experiment on RPMI-8226 and with SF-295 was > 100 µM (inactive) in each case. Further, the GI50 in the experiment on SK-MEL-28, in the experiment on SK-OV-3, in the experiment with SW-620, in the experiment with UACC-62 and in the experiment with UO-31 was > 100 µM (inactive) each time.
